Key:
[1] = molecular target: T1, cytoplasmic domain of the human CSF-1R (Homo sapiens, UniProt P07333); assay: In vitro kinase assay for CSF-1R (AlphaScreen); format: biochemical; settings: tested at about 1 μM; read-out: CSF1RK 1 percent inhibition
T1 construct: Recombinant protein corresponding to the cytoplasmic domain of the human CSF-1R; purchased Invitrogen Corporation, Carlsbad, Calif; PV3249
T1 sequence (P07333 539-972 limits assumed): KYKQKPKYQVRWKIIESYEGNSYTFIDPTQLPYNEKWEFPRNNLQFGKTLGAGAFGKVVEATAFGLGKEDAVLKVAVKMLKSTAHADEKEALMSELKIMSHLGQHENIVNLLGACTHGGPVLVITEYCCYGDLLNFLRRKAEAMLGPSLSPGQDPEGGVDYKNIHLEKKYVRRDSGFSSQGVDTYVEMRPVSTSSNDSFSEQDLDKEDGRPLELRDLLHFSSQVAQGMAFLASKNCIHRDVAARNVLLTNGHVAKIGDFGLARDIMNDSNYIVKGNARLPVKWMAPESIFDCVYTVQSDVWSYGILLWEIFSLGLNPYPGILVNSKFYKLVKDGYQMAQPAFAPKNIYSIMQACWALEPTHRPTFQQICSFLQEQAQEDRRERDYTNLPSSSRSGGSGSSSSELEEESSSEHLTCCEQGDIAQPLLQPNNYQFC
Experimental: The kinase activity of various protein tyrosine kinases can be measured by providing ATP and a suitable peptide or protein tyrosine-containing substrate, and assaying the transfer of phosphate moiety to the tyrosine residue. Recombinant protein corresponding to the cytoplasmic domain of the human CSF-1R was purchased from Invitrogen Corporation, Carlsbad, Calif. U.S.A. (#PV3249). For each assay, test compounds were serially diluted, starting at 25 μM with 3 fold dilutions, in DMSO in 384 well plates then mixed with an appropriate kinase reaction buffer consisting of 50 mM Hepes, 5 mM MgCl2, 10 mM MnCl2, 0.1% BSA, pH 7.5, 1.0 mM dithiothreitol, 0.01% Tween 80 plus 1 μM ATP. Kinase protein and an appropriate biotinylated peptide substrate at 50 nM were added to give a final volume of 20 μL, reactions were incubated for 2 hours at room temperature and stopped by the addition of 10 μL of 45 mM EDTA, 50 mM Hepes pH 7.5. Added to the stopped reaction mix was 30 μL of PT66 Alphascreen beads (Perkin Elmer, Boston, Mass., U.S.A.). The reaction was incubated overnight and read on the Envision (Perkin Elmer). Phosphorylated peptide product was measured with the AlphaScreen system (Perkin Elmer) using acceptor beads coated with anti-phosphotyrosine antibody PT66 and donor beads coated with streptavidin that emit a fluorescent signal at the 520-620 nm emission wave length if in close proximity. The concentration of each compound for 50% inhibition (IC50) was calculated by non-linear regression using XL Fit data analysis software.
CSF-1R kinase was assayed in 50 mM Hepes pH 7.0, 5 mM MgCl2, 10 mM MnCl2, 1 mM DTT, 1 mg/mL BSA, 1.0 μM ATP, and 0.05 μM biotin-GGGGRPRAATF-NH2 (SEQ ID NO:1) peptide substrate. CSF-1R kinase was added at final concentration of 4 nM.

[2] = molecular target: T2, cKIT (Homo sapiens, UniProt P10721); assay: cKIT kinase in vitro biochemical assay (alphascreen); settings: tested at about 1 μM; read-out: CKIT percent inhibition
T2 construct: The kinase domain of cKIT was assayed in 50 mM Hepes; purchased Upstate 14-559
T2 sequence (P10721 589-937 limits assumed): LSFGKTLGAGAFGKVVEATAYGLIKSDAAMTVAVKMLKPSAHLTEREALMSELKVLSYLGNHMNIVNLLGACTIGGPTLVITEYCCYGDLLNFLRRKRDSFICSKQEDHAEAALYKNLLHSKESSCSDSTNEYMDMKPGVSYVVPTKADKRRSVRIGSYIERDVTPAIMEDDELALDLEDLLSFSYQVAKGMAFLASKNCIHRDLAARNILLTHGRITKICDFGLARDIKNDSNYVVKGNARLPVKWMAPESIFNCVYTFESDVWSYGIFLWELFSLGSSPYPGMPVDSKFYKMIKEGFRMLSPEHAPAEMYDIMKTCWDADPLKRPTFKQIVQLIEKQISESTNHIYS
Experimental: (§1) The IC50 values for the inhibition of RTKs were determined in the alphascreen format measuring the inhibition by compound of phosphate transfer to a substrate by the respective enzyme. Briefly, the respective RTK domain purchased as human recombinant protein (cKIT Upstate #14-559, PDGFRb Invitrogen #P3082) were incubated with serial dilutions of compound in the presence of substrate and ATP concentrations within 3 times the Km of the enzyme.
(§2) The kinase domain of cKIT was assayed in 50 mM Hepes, pH=7.5, 5 mM MgCl2, 10 mM MnCl2, 1 mM DTT, 0.1% BSA with 0.06 uM biotinylated peptide substrate (GGLFDDPSYVNVQNL-NH2) and 15 uM ATP (ATP KM apparent=15 uM). The kinase domain of PDGFRβ was assayed in 50 mM Hepes, pH=7.5, 20 mM MgCl2, 1 mM DTT, 0.1% BSA with 0.1 uM biotinylated peptide substrate (GGLFDDPSYVNVQNL-NH2) and 10 uM ATP (ATP KM apparent=25 uM). Reactions were incubated at room temperature for 3 to 4 hr and stopped with buffer (20 mM EDTA, 0.01% Tween-20 for both PDGFRb and cKIT). Alphascreen PY20 beads were added to the stopped cKIT reactions and PY20 Ab/Protein A Alphascreen beads were added to the PDGFRβ stopped reactions. Both reactions were incubated overnight and read on the Alphascreen reader. The concentration of compound for 50% inhibition (IC50) was calculated employing non-linear regression using XL-Fit data analysis software. As a control compound, staurosporine is run in every assay and a Z′>0.5 is required to validate results.

[3] = molecular target: T3, PDGFRb (Homo sapiens, UniProt P09619); assay: PDGFRb kinase in vitro biochemical assay (alphascreen); settings: tested at about 1 μM; read-out: PDGF RK BETA percent inhibition
T3 construct: The kinase domain of PDGFRβ was assayed in 50 mM Hepes; purchased Invitrogen P3082
T3 sequence (P09619 600-962 limits assumed): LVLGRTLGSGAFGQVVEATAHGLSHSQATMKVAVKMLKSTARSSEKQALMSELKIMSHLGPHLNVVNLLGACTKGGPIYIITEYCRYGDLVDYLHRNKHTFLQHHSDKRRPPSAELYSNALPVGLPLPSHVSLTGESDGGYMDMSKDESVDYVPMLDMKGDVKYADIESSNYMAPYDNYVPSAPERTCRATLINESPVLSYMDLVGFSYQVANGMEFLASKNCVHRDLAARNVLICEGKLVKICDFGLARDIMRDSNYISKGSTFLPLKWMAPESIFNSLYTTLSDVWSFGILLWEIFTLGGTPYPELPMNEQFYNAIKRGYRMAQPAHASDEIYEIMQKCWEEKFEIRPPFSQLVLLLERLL
Experimental: as §1, §2

[4] = tested on: MNFS60 (murine AML cells); assay: Cell viability assay in MCSF dependent MNFS60 cells (Cell Titer Glo); format: cell-based; settings: Mus musculus; tested at about 1 μM; MCSF 10 ng/mL, 72 hrs; read-out: CPEC50 MNFS60MCSF percent inhibition
Experimental: Cell viability was assessed by Cell Titer Glo, Promega. MNFS60 (murine AML cells) were seeded in TC treated 96-well plates at a density of 5,000 cells per well in RPMI-1640, 10% FBS, and 1% Penicillin Streptomycin prior to addition of compound. Test compounds were serially diluted (3 fold) in DMSO to 500× the final concentration. For each concentration of test compound, 2 μl (500×) aliquots of compound or 100% DMSO (control) were diluted in 500 μl of culture medium that contained 2× final concentration of growth factor MCSF for 2× concentration and then diluted 1× on the cells. Final concentration of MCSF is 10 ng/mL. Cells were incubated for 72 hrs at 37° C., 5% CO2. After the incubation 100 μl Cell Titer Glo is added to each well to determine viable cells. The assay was performed according to the manufacturer's instruction (Promega Corporation, Madison, Wis. USA). Each experimental condition was performed in triplicate. Raw data was imported in Abase and EC50s calculated with XL-fit data analysis software: Relative light units of wells that contained cells without MCSF in the media and as a consequence didn't grow were defined as 100% inhibited.

Structure (SMILES)	inhibition at 1 µM [1] [%]	inhibition at 1 µM [2] [%]	inhibition at 1 µM [3] [%]	inhibition at 1 µM [4] [%]
CNC(=O)c1ccc(Oc2ccc3nc(NCC4CCCCC4)sc3c2)cn1 [Compound 48, 5-(2-(cyclohexylmethylamino)benzo [d]thiazol-6-yloxy)-N-methylpicolinamide]	96	22	8	0
O[C@@H]1CCCC[C@H]1Nc1nc2ccc(Oc3cncc(C4=CCNCC4)c3)cc2s1 [Compound 85, (1R,2R)-2-(6-(5-(1,2,3,6-tetrahydropyridin-4-yl)pyridin-3-yloxy)benzo[d]thiazol-2-ylamino)cyclohexanol]	96	13	2	13
CNC(=O)c1cc(Oc2ccc3nc(NCC4CCCCC4)sc3c2)nc(OC)n1 [Compound 10, 6-(2-(Cyclohexylmethylamino)benzo[d]thiazol-6-yloxy)-2-methoxy-n-methylpyrimidine-4-carboxamide]	96	16	5	27
CNC(=O)c1cncc(Oc2ccc3nc(N[C@@H](C)C4CCCCC4)sc3c2)n1 [Compound 51, (S)-6-(2-(1-cyclohexylethylamino)benzo[d]thiazol-6-yloxy)-N-methylpyrazine-2-carboxamide]	97	32	14	3
O[C@@H]1CCCC[C@H]1Nc1nc2ccc(Oc3cncc(-c4cnn(CCN5CCOCC5)c4)c3)cc2s1 [Compound 59, (1R,2R)-2-(6-(5-(1-(2-morpholinoethyl)-1H-pyrazol-4-yl)pyridin-3-yloxy)benzo[d]thiazol-2-ylamino)cyclohexanol]	100	78	16	
Clc1cc(Oc2ccc3nc(NCC4CCCCC4)sc3c2)ncn1 [Compound 2, 6-(6-chloropyrimidin-4-yloxy)-N-(cyclohexylmethyl)benzo[d]thiazol-2-amine]	78	11	6	
N#Cc1ccc(Oc2ccc3nc(N[C@@H]4CCCC[C@H]4O)sc3c2)cn1 [Compound 88, 5-(2-((1R,2R)-2-hydroxycyclohexylamino)benzo[d]thiazol-6-yloxy)picolinonitrile]	32	15	0	
O[C@@H]1CCCC[C@H]1Nc1nc2ccc(Oc3cncc(-c4cscn4)c3)cc2s1 [Compound 69, (1R,2R)-2-(6-(5-(thiazol-4-yl)pyridin-3-yloxy)benzo[d]thiazol-2-ylamino) cyclohexanol]	100	97	31	
Nc1ccc(-c2cc(Oc3ccc4nc(N[C@@H]5CCCC[C@H]5O)sc4c3)cnc2-c2ccc(N)nc2)cn1 [Compound 108, (1R,2R)-2-(6-(5,6-bis(6-amino-pyridin-3-yl)pyridin-3-yloxy)benzo[d]thiazol-2-ylamino)cyclohexanol]	93	10	23	

More lines, main results first:

inhibition at 1 µM [1] [%]	inhibition at 1 µM [2] [%]	inhibition at 1 µM [3] [%]	Structure (SMILES)	inhibition at 1 µM [4] [%]
100	63	1	Nc1ccc(-c2cncc(Oc3ccc4nc(N[C@@H]5CCCC[C@H]5O)sc4c3)c2)cn1 [Compound 47, (1R,2R)-2-(6-(6′-amino-3,3′-bipyridin-5-yloxy)benzo[d]thiazol-2-ylamino) cyclohexanol]	100
100	18	8	O[C@@H]1CCCC[C@H]1Nc1nc2ccc(Oc3cncc(-c4cnn(CCN5CCOCC5)c4)n3)cc2s1 [Compound 95, (1R,2R)-2-(6-(6-(1-(2-morpholinoethyl)-1H-pyrazol-4-yl)pyrazin-2-yloxy)benzo[d]thiazol-2-ylamino)cyclohexanol]	47
98	12	13	CNC(=O)c1ccc(Oc2ccc3nc(N[C@@H](C)C4CCCCC4)sc3c2)cn1 [Compound 53, (S)-5-(2-(1-cyclohexylethylamino)benzo[d]thiazol-6-yloxy)-N-methylpicolinamide]	13
97	13	2	Nc1cc(Oc2ccc3nc(N[C@@H]4CCCC[C@H]4O)sc3c2)ncn1 [Compound 9, (1R,2R)-2-(6-(6-aminopyrimidin-4-yloxy)benzo[d]thiazol-2-ylamino) cyclohexanol]	15
100	13	11	Nc1ccc(-c2nccc(Oc3ccc4nc(N[C@@H]5CCCC[C@H]5O)sc4c3)n2)cn1 [Compound 29, (1R,2R)-2-(6-(2-(6-aminopyridin-3-yl)pyrimidin-4-yloxy)benzo[d]thiazol-2-ylamino)cyclohexanol]	76
100	86	98	O[C@@H]1CCCC[C@H]1Nc1nc2ccc(Oc3cncc(-c4ncco4)c3)cc2s1 [Compound 83, (1R,2R)-2-(6-(5-(oxazol-2-yl)pyridin-3-yloxy)benzo[d]thiazol-2-ylamino) cyclohexanol]	
100	73	8	O[C@@H]1CCCC[C@H]1Nc1nc2ccc(Oc3cncc(C4CC4)c3)cc2s1 [Compound 65, (1R,2R)-2-(6-(5-cyclopropylpyridin-3-yloxy)benzo[d]thiazol-2-ylamino) cyclohexanol]	
